Test results taken from US9458220B2 (priority 2010, dated 2016).

Columns and labels:
[1] = Dipeptide half life on IGF1 dipeptide extended (p-NH2-F)A19 analogs in PBS; format: physicochemical; settings: Table 12; cleavage of (pNH2-Phe) amide linked dipeptide AibPro from the parent peptide
Protocol: Accordingly, the IGF1A chain alone was determined to be a good model for the study of pro-drug half life on IGF1 B:A (Y^B16L^B17) analog peptides. […] For simplicity, prodrug half lives were determined using only the IGF1 A chain in the absence of the B chain. The half lives of each propeptide was determined as described in Example 5.
The IGF^B16B17 analog peptide prodrugs were incubated in PBS, pH 7.4 at 37° C. and at predetermined time intervals an aliquot was taken and further degradation was quenched with 0.1% TFA and the aliquot was subjected to analytical HPLC analysis. Peaks a and b, representing the prodrug and active forms of the IGF^B16B17 analog peptide were identified with LC-MS and quantified by integration of peak area an HPLC. FIGS. 9A-9C show the output of an HPLC analysis of the degradation of the IGF^B16B17 analog peptide prodrug: IGF1A(Ala)^6,7,11,20(Aib-Pro-pNH—F)^19. Aliquots were taken at 20 minutes (FIG. 9A), 81 minutes (FIG. 9B) and 120 minutes (FIG. 9C) after beginning the incubation of the prodrug in PBS.

human insulin receptor = biological target: T1, human insulin receptor (Homo sapiens, UniProt P06213); assay: Insulin receptor competition binding assay (scintillation proximity); settings: Table 9
T1 construct: expressed in transfected cells; plasma membrane fragments

human IGF-1 receptor = biological target: T2, human IGF-1 receptor (Homo sapiens, UniProt P08069); assay: IGF-1 receptor competition binding assay (scintillation proximity); settings: Table 9
T2 construct: expressed in transfected cells; plasma membrane fragments
T2 sequence (P08069 31-736 limits assumed): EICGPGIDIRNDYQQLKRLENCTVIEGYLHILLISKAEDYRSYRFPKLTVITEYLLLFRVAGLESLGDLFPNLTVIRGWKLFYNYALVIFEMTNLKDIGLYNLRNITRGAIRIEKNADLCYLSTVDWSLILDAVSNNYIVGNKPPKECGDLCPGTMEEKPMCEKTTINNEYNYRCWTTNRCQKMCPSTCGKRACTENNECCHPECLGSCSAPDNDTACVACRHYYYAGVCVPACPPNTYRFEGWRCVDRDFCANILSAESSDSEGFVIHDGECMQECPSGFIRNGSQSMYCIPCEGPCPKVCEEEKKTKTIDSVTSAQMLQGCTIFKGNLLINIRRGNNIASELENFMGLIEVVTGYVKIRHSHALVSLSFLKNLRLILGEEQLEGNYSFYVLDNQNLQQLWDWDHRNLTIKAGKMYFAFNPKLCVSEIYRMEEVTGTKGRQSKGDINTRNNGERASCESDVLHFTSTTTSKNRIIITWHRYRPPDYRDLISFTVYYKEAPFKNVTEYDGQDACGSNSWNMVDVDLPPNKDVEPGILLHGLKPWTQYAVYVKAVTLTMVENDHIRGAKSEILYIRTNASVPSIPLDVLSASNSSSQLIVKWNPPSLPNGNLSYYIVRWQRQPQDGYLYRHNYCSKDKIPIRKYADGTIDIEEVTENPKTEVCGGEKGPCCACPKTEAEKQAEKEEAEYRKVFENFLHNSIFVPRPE
T2 sequence (P08069 741-1367 partner limits assumed): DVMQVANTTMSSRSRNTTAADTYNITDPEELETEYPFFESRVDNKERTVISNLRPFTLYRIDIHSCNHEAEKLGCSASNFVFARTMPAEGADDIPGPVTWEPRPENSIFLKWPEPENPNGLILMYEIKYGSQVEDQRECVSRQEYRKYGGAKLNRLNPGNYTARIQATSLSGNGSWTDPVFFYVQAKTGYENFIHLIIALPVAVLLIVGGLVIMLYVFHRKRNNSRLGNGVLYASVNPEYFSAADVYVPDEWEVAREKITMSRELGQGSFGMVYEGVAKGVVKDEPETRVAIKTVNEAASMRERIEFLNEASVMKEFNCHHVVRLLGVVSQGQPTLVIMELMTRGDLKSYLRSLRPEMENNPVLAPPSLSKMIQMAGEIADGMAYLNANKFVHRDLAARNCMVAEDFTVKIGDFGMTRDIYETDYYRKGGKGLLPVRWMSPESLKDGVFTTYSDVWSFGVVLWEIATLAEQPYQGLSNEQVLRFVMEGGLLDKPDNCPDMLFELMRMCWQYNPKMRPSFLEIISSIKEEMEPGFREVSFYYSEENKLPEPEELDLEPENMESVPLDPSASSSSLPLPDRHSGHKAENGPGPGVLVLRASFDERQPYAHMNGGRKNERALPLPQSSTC

T1 sequence (P06213 28-758 limits assumed): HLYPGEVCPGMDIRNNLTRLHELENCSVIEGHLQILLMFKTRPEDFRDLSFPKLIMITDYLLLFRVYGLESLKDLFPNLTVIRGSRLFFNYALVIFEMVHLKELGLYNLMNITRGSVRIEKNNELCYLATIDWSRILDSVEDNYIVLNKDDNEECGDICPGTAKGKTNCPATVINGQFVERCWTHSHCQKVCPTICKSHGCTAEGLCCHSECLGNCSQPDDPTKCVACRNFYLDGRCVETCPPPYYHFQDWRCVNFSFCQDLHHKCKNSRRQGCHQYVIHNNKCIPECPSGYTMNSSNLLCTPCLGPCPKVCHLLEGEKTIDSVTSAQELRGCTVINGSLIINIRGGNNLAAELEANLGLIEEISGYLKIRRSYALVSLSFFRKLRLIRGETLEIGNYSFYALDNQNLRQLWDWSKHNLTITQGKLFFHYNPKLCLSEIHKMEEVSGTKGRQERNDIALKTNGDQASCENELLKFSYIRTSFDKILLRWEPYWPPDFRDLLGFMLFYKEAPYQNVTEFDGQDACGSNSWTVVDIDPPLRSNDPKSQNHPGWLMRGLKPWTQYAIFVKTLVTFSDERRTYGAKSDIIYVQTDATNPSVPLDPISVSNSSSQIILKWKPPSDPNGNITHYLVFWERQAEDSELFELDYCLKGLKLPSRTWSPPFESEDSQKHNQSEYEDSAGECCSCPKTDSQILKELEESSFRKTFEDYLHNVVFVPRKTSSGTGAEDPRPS
T1 sequence (P06213 763-1382 partner limits assumed): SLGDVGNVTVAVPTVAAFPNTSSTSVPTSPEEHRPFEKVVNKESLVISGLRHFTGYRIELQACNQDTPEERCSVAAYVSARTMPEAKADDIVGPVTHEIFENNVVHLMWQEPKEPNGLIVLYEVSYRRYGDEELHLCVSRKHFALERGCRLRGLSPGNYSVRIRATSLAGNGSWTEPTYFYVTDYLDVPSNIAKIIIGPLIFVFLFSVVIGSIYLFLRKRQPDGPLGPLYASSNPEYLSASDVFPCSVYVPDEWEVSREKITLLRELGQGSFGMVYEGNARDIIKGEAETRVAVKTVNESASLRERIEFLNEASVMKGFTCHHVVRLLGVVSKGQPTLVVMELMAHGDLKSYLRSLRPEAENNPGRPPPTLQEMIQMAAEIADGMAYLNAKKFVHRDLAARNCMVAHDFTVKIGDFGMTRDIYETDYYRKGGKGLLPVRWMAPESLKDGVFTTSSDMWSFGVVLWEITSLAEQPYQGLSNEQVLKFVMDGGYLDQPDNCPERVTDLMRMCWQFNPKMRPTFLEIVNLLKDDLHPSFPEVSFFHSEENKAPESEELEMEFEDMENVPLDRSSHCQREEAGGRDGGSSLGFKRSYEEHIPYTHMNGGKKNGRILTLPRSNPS

## CC[C@H](C)[C@H](NC(=O)CN)C(=O)N[C@H](C(=O)N[C@@H](CC(=O)O)C(=O)N[C@@H](CCC(=O)O)C(=O)N[C@H]1CSSC[C@@H]2NC(=O)[C@H](CO)NC(=O)[C@H](CCCNC(=N)N)NC(=O)[C@H](Cc3ccccc3)NC(=O)[C@H](CSSC[C@H](NC(=O)[C@H](CC(C)C)NC(=O)[C@@H](NC(=O)[C@H](CCC(=O)O)NC(=O)[C@@H]3CCCN3C(=O)CN)[C@@H](C)O)C(=O)NCC(=O)N[C@@H](C)C(=O)N[C@@H](CCC(=O)O)C(=O)N[C@@H](CC(C)C)C(=O)N[C@@H](C(C)C)C(=O)N[C@@H](CC(=O)O)C(=O)N[C@@H](C)C(=O)N[C@@H](CC(C)C)C(=O)N[C@@H](Cc3ccc(O)cc3)C(=O)N[C@@H](CC(C)C)C(=O)N[C@@H](C(C)C)C(=O)N[C@H](C(=O)NCC(=O)N[C@@H](CC(=O)O)C(=O)N[C@@H](CCCNC(=N)N)C(=O)NCC(=O)N[C@@H](Cc3ccccc3)C(=O)N[C@@H](Cc3ccc(O)cc3)C(=O)N[C@@H](Cc3ccccc3)C(=O)N[C@@H](CC(N)=O)C(=O)N[C@@H](CCCCN)C(=O)N3CCC[C@H]3C(=O)N[C@H](C(N)=O)[C@@H](C)O)CSSC[C@@H](C(=O)N[C@@H](C)C(=O)O)NC(=O)[C@H](Cc3ccc(NC(=O)[C@@H]4CCCN4C(=O)C(C)(C)N)cc3)NC(=O)[C@H](CCSC)NC(=O)[C@H](CCC(=O)O)NC(=O)[C@H](CC(C)C)NC(=O)[C@H](CCCNC(=N)N)NC(=O)[C@H](CCCNC(=N)N)NC(=O)[C@H](CC(C)C)NC(=O)[C@H](CC(=O)O)NC2=O)NC1=O)C(C)C [IGF1 B:A(pNH2-Phe)^A19]
[1]
  Half Life: 1.6 h

## CC[C@H](C)[C@H](NC(=O)CN)C(=O)N[C@H](C(=O)N[C@@H](CC(=O)O)C(=O)N[C@@H](CCC(=O)O)C(=O)N[C@H]1CSSC[C@@H]2NC(=O)[C@H](CO)NC(=O)[C@H](CCCNC(=N)N)NC(=O)[C@H](Cc3ccccc3)NC(=O)[C@H](CSSC[C@H](NC(=O)[C@H](CC(C)C)NC(=O)[C@H](Cc3c[nH]cn3)NC(=O)[C@H](CCC(N)=O)NC(=O)[C@H](CC(N)=O)NC(=O)[C@@H](NC(=O)[C@@H](N)Cc3ccccc3)C(C)C)C(=O)NCC(=O)N[C@@H](C)C(=O)N[C@@H](CCC(=O)O)C(=O)N[C@@H](CC(C)C)C(=O)N[C@@H](C(C)C)C(=O)N[C@@H](CC(=O)O)C(=O)N[C@@H](C)C(=O)N[C@@H](CC(C)C)C(=O)N[C@@H](Cc3ccc(O)cc3)C(=O)N[C@@H](CC(C)C)C(=O)N[C@@H](C(C)C)C(=O)N[C@H](C(=O)NCC(=O)N[C@@H](CC(=O)O)C(=O)N[C@@H](CCCNC(=N)N)C(=O)NCC(=O)N[C@@H](Cc3ccccc3)C(=O)N[C@@H](Cc3ccc(O)cc3)C(=O)N[C@@H](Cc3ccccc3)C(=O)N[C@@H](CC(N)=O)C(=O)N[C@@H](CCCCN)C(=O)N3CCC[C@H]3C(=O)N[C@H](C(N)=O)[C@@H](C)O)CSSC[C@@H](C(=O)N[C@@H](C)C(N)=O)NC(=O)[C@H](Cc3ccc(O)cc3)NC(=O)[C@H](CCSC)NC(=O)[C@H](CCC(=O)O)NC(=O)[C@H](CC(C)C)NC(=O)[C@H](CCCNC(=N)N)NC(=O)[C@H](CCCNC(=N)N)NC(=O)[C@H](CC(C)C)NC(=O)[C@H](CC(=O)O)NC2=O)NC1=O)C(C)C [IGF-1 A: In B (1-5)-IGF-1 B (YL) (6-30)]
Human insulin receptor
  Insulin Receptor % insulin (in test): 62.4%
  Insulin Receptor % native insulin activity (0.6 nM): 193.5%
Human IGF-1 receptor
  IGF-1 Receptor % IGF-1 (in test): 3.6%

## CC[C@H](C)[C@H](NC(=O)CN)C(=O)N[C@H](C(=O)N[C@@H](CC(=O)O)C(=O)N[C@@H](CCC(=O)O)C(=O)N[C@@H](CSCNC(C)=O)C(=O)N[C@@H](CSSC[C@H](NC(=O)[C@H](CC(C)C)NC(=O)[C@@H](NC(=O)[C@H](CCC(=O)O)NC(=O)[C@@H]1CCCN1C(=O)CN)[C@@H](C)O)C(=O)NCC(=O)N[C@@H](C)C(=O)N[C@@H](CCC(=O)O)C(=O)N[C@@H](CC(C)C)C(=O)N[C@H](C(=O)N[C@@H](CC(=O)O)C(=O)N[C@@H](C)C(=O)N[C@@H](CC(C)C)C(=O)N[C@@H](Cc1ccc(O)cc1)C(=O)N[C@@H](CC(C)C)C(=O)N[C@H](C(=O)N[C@@H](CSCNC(C)=O)C(=O)NCC(=O)N[C@@H](CC(=O)O)C(=O)N[C@@H](CCCNC(=N)N)C(=O)NCC(=O)N[C@@H](Cc1ccccc1)C(=O)N[C@@H](Cc1ccc(O)cc1)C(=O)N[C@@H](Cc1ccccc1)C(=O)N[C@@H](CC(N)=O)C(=O)N[C@@H](CCCCN)C(=O)N1CCC[C@H]1C(=O)N[C@H](C(N)=O)[C@@H](C)O)C(C)C)C(C)C)C(=O)N[C@@H](Cc1ccccc1)C(=O)N[C@@H](CCCNC(=N)N)C(=O)N[C@@H](CO)C(=O)N[C@@H](CSCNC(C)=O)C(=O)N[C@@H](CC(=O)O)C(=O)N[C@@H](CC(C)C)C(=O)N[C@@H](CCCNC(=N)N)C(=O)N[C@@H](CCCNC(=N)N)C(=O)N[C@@H](CC(C)C)C(=O)N[C@@H](CCC(=O)O)C(=O)N[C@@H](CCSC)C(=O)N[C@@H](Cc1ccc(NC(=O)[C@@H]2CCCN2C(=O)C(C)(C)N)cc1)C(=O)N[C@@H](CSCNC(C)=O)C(=O)N[C@@H](C)C(=O)O)C(C)C
[1]
  Half Life: 1.8 h
